Source: the supplement of paper PMC7017272
± gives the standard deviation of the averaged measurements. Each block holds one compound with its values, some of them ahead of it.

Key:
Details in all cases: treatment time: 3 days
UT-SCC-73 [1] = assay: drug sensitivity score (DSS); higher = more sensitive; extreme values may be limits of the assay
Procedure, shortened: (§1)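 HPV-negative HNSCC cell lines were seeded at 500 cells/well in 384-well plates on plastic, on Matrigel- or Myogel-coated wells (500 µg/mL), or embedded in Matrigel or Myogel plus rat collagen I. Compounds were given at five 10-fold concentrations for 3 days, and viability was read by CellTiter-Glo 2.0 luminescence. Signals were normalised to vehicle (0.1% DMSO) and cell-killing control wells. Percent-inhibition dose–response curves were fitted in the FIMM pipeline to derive IC50, maximal inhibition and drug sensitivity score.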

UT-SCC-40 [2] = assay: as above
Procedure, shortened: as §1

UT-SCC-8 = assay: as above
Procedure, shortened: as §1

UT-SCC-28 [3] = assay: as above
Procedure, shortened: as §1

UT-SCC-81 [4] = assay: as above
Procedure, shortened: as §1

UT-SCC-44 [5] = assay: as above
Procedure, shortened: as §1

UT-SCC-24B [6] = assay: as above
Procedure, shortened: as §1

UT-SCC-73 [7] = assay: relative IC50 (midpoint of the fitted curve; maximal inhibition may be below 50%); higher = less potent
Procedure, shortened: as §1

UT-SCC-42A = assay: as above
Procedure, shortened: as §1

UT-SCC-106A = assay: as above
Procedure, shortened: as §1

UT-SCC-28 [8] = assay: as above
Procedure, shortened: as §1

UT-SCC-44 [9] = assay: as above
Procedure, shortened: as §1

UT-SCC-14 = assay: as above
Procedure, shortened: as §1

UT-SCC-24B [10] = assay: as above
Procedure, shortened: as §1

UT-SCC-24A = assay: maximal % inhibition of viability relative to DMSO; higher = stronger effect
Description: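 HNSCC cell lines (500 cells/well, 384-well) were cultured on plastic, on top of (2D) or embedded (3D) in Matrigel or human leiomyoma matrix Myogel (500 ug/mL; Myogel 3D mixed with rat collagen I). Cells were treated for 3 days with 5 ten-fold concentrations of each drug, and viability was read by CellTiter-Glo. Viability was normalised to DMSO (0% inhibition) and 100 uM benzethonium chloride (100% inhibition) controls and fitted with the FIMM DSRT pipeline to give IC50 (nM), maximal % inhibition and the drug sensitivity score (DSS). Suffixes _1/_2/_3 on drug names are replicates.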

UT-SCC-42B = assay: relative IC50 (midpoint of the fitted curve; maximal inhibition may be below 50%); higher = less potent
Procedure, shortened: as §1

UT-SCC-40 [11] = assay: as above
Procedure, shortened: as §1

UT-SCC-81 [12] = assay: as above
Procedure, shortened: as §1

[13] = culture condition: embedded in Matrigel
[14] = culture condition: embedded in Myogel + collagen I
[15] = culture condition: on top of Matrigel
[16] = culture condition: on top of Myogel
[17] = culture condition: plastic 2D (no matrix)

- relative IC50 (UT-SCC-73 [7]; [13]): 272 nM
- relative IC50 (UT-SCC-42A; [13]): 1810 nM
- relative IC50 (UT-SCC-106A; [13]): 98.9 nM
- relative IC50 (UT-SCC-106A; [17]): 193 nM
- relative IC50 (UT-SCC-28 [8]; [15]): 118 nM
- relative IC50 (UT-SCC-44 [9]; [13]): 78.9 nM
- relative IC50 (UT-SCC-44 [9]; [16]): 805 nM
- relative IC50 (UT-SCC-14; [16]): 543 nM
- relative IC50 (UT-SCC-14; [17]): 741 nM
- relative IC50 (UT-SCC-24B [10]; [14]): 163 nM
- relative IC50 (UT-SCC-24B [10]; [15]): 363 nM
- relative IC50 (UT-SCC-24B [10]; [16]): 562 nM
- relative IC50 (UT-SCC-24B [10]; [17]): 337 nM
Structure (SMILES): COc1ccc(-c2cc3c(C)nc(N)nc3n([C@H]3CC[C@H](OCCO)CC3)c2=O)cn1
- drug sensitivity score (UT-SCC-73 [1]; [13]): 16 ± 2.9 DSS
- drug sensitivity score (UT-SCC-73 [1]; [14]): 12.1 ± 4.3 DSS
- drug sensitivity score (UT-SCC-73 [1]; [15]): 13.9 ± 2.8 DSS
- drug sensitivity score (UT-SCC-73 [1]; [16]): 12.7 ± 3 DSS
- drug sensitivity score (UT-SCC-73 [1]; [17]): 12.6 ± 4.8 DSS
- drug sensitivity score (UT-SCC-40 [2]; [13]): 13.4 ± 5.6 DSS
- drug sensitivity score (UT-SCC-40 [2]; [14]): 11.5 ± 5.7 DSS
- drug sensitivity score (UT-SCC-40 [2]; [15]): 12.1 ± 5.5 DSS
- drug sensitivity score (UT-SCC-40 [2]; [16]): 8.77 ± 3.4 DSS
- drug sensitivity score (UT-SCC-40 [2]; [17]): 8.4 ± 3.7 DSS
- drug sensitivity score (UT-SCC-8; [13]): 11.4 ± 2.5 DSS
- drug sensitivity score (UT-SCC-8; [14]): 4.97 ± 1.8 DSS
- drug sensitivity score (UT-SCC-8; [15]): 10.9 ± 3.1 DSS
- drug sensitivity score (UT-SCC-8; [16]): 10.9 ± 3.6 DSS
- drug sensitivity score (UT-SCC-8; [17]): 10.4 ± 2.7 DSS
- drug sensitivity score (UT-SCC-28 [3]; [13]): 10.5 ± 5.4 DSS
- drug sensitivity score (UT-SCC-28 [3]; [14]): 6.7 ± 5 DSS
- drug sensitivity score (UT-SCC-28 [3]; [15]): 13.8 ± 2.3 DSS
- drug sensitivity score (UT-SCC-28 [3]; [17]): 11.5 ± 1.7 DSS
- drug sensitivity score (UT-SCC-81 [4]; [13]): 23.6 ± 11 DSS
- drug sensitivity score (UT-SCC-81 [4]; [14]): 14.2 ± 7.1 DSS
- drug sensitivity score (UT-SCC-81 [4]; [15]): 15.9 ± 7.3 DSS
- drug sensitivity score (UT-SCC-81 [4]; [16]): 13.6 ± 6.6 DSS
- drug sensitivity score (UT-SCC-81 [4]; [17]): 14.4 ± 8.1 DSS
- drug sensitivity score (UT-SCC-44 [5]; [13]): 10.5 ± 1.6 DSS
- drug sensitivity score (UT-SCC-44 [5]; [14]): 4.07 ± 2.6 DSS
- drug sensitivity score (UT-SCC-44 [5]; [15]): 8.07 ± 0.71 DSS
- drug sensitivity score (UT-SCC-44 [5]; [16]): 4.63 ± 1.3 DSS
- drug sensitivity score (UT-SCC-44 [5]; [17]): 5.7 ± 0.1 DSS
- drug sensitivity score (UT-SCC-24B [6]; [13]): 15.4 ± 3.6 DSS
- drug sensitivity score (UT-SCC-24B [6]; [14]): 19.8 ± 1.6 DSS
- drug sensitivity score (UT-SCC-24B [6]; [15]): 16.1 ± 1.8 DSS
- drug sensitivity score (UT-SCC-24B [6]; [16]): 13.9 ± 1.9 DSS
- drug sensitivity score (UT-SCC-24B [6]; [17]): 16.6 ± 3.5 DSS
- maximal % inhibition of viability (UT-SCC-24A; [13]): 79.2 ± 19%
- maximal % inhibition of viability (UT-SCC-24A; [14]): 61.6 ± 18%
- maximal % inhibition of viability (UT-SCC-24A; [15]): 71.5 ± 12%
- maximal % inhibition of viability (UT-SCC-24A; [16]): 54.5 ± 16%
- maximal % inhibition of viability (UT-SCC-24A; [17]): 72.1 ± 23%

- relative IC50 (UT-SCC-73 [7]; [13]): 28.2 nM
- relative IC50 (UT-SCC-73 [7]; [15]): 23.7 nM
- relative IC50 (UT-SCC-73 [7]; [16]): 65.3 nM
- relative IC50 (UT-SCC-73 [7]; [17]): 27.9 nM
- relative IC50 (UT-SCC-42B; [13]): 9.72 nM
- relative IC50 (UT-SCC-42B; [15]): 47.8 nM
- relative IC50 (UT-SCC-42B; [17]): 54.3 nM
- relative IC50 (UT-SCC-42A; [13]): 13.8 nM
- relative IC50 (UT-SCC-42A; [15]): 8.75 nM
- relative IC50 (UT-SCC-42A; [16]): 14.9 nM
- relative IC50 (UT-SCC-42A; [17]): 25.5 nM
- relative IC50 (UT-SCC-40 [11]; [13]): 16.5 nM
- relative IC50 (UT-SCC-40 [11]; [15]): 39.4 nM
- relative IC50 (UT-SCC-40 [11]; [16]): 54 nM
- relative IC50 (UT-SCC-40 [11]; [17]): 51.7 nM
- relative IC50 (UT-SCC-106A; [13]): 8.97 nM
- relative IC50 (UT-SCC-106A; [15]): 13.8 nM
- relative IC50 (UT-SCC-106A; [16]): 101 nM
- relative IC50 (UT-SCC-106A; [17]): 19.3 nM
- relative IC50 (UT-SCC-28 [8]; [14]): > 989 nM
- relative IC50 (UT-SCC-28 [8]; [15]): 26.5 nM
- relative IC50 (UT-SCC-81 [12]; [13]): 9.22 nM
- relative IC50 (UT-SCC-81 [12]; [14]): 175 nM
- relative IC50 (UT-SCC-81 [12]; [15]): 53.2 nM
- relative IC50 (UT-SCC-81 [12]; [16]): 14.9 nM
- relative IC50 (UT-SCC-81 [12]; [17]): 74.4 nM
- relative IC50 (UT-SCC-44 [9]; [13]): 19.6 nM
- relative IC50 (UT-SCC-44 [9]; [16]): 41.3 nM
- relative IC50 (UT-SCC-24B [10]; [13]): 115 nM
- relative IC50 (UT-SCC-24B [10]; [15]): 101 nM
- relative IC50 (UT-SCC-24B [10]; [17]): 69 nM
Structure (SMILES): Cn1cnc2c(F)c(Nc3ccc(Br)cc3F)c(C(=O)NOCCO)cc21 [Binimetinib]
- drug sensitivity score (UT-SCC-73 [1]; [13]): 14.6 ± 0.67 DSS
- drug sensitivity score (UT-SCC-73 [1]; [14]): 9.93 ± 3.5 DSS
- drug sensitivity score (UT-SCC-73 [1]; [15]): 14.3 ± 0.8 DSS
- drug sensitivity score (UT-SCC-73 [1]; [16]): 8.03 ± 1.4 DSS
- drug sensitivity score (UT-SCC-73 [1]; [17]): 12 ± 1 DSS
- drug sensitivity score (UT-SCC-40 [2]; [13]): 16.3 ± 2.6 DSS
- drug sensitivity score (UT-SCC-40 [2]; [14]): 10.8 ± 4.3 DSS
- drug sensitivity score (UT-SCC-40 [2]; [15]): 11.7 ± 2.1 DSS
- drug sensitivity score (UT-SCC-40 [2]; [16]): 5.87 ± 1.8 DSS
- drug sensitivity score (UT-SCC-40 [2]; [17]): 7.63 ± 2 DSS
- drug sensitivity score (UT-SCC-8; [13]): 5.73 ± 4.6 DSS
- drug sensitivity score (UT-SCC-8; [14]): 1.97 ± 3.4 DSS
- drug sensitivity score (UT-SCC-8; [15]): 3.73 ± 2.5 DSS
- drug sensitivity score (UT-SCC-8; [16]): 4.67 ± 4.2 DSS
- drug sensitivity score (UT-SCC-8; [17]): 3.83 ± 3.4 DSS
- drug sensitivity score (UT-SCC-28 [3]; [13]): 6.5 ± 2.1 DSS
- drug sensitivity score (UT-SCC-28 [3]; [14]): 0 DSS
- drug sensitivity score (UT-SCC-28 [3]; [15]): 4.43 ± 1.8 DSS
- drug sensitivity score (UT-SCC-28 [3]; [17]): 2.87 ± 2.4 DSS
- drug sensitivity score (UT-SCC-81 [4]; [13]): 20.4 ± 0.21 DSS
- drug sensitivity score (UT-SCC-81 [4]; [14]): 0.933 ± 0.55 DSS
- drug sensitivity score (UT-SCC-81 [4]; [15]): 11 ± 1.7 DSS
- drug sensitivity score (UT-SCC-81 [4]; [16]): 3.7 ± 1.1 DSS
- drug sensitivity score (UT-SCC-81 [4]; [17]): 4.4 ± 0.69 DSS
- drug sensitivity score (UT-SCC-44 [5]; [13]): 13.9 ± 2.2 DSS
- drug sensitivity score (UT-SCC-44 [5]; [14]): 3.57 ± 1 DSS
- drug sensitivity score (UT-SCC-44 [5]; [15]): 11.4 ± 0.57 DSS
- drug sensitivity score (UT-SCC-44 [5]; [16]): 5.07 ± 1.4 DSS
- drug sensitivity score (UT-SCC-44 [5]; [17]): 7.77 ± 4.3 DSS
- drug sensitivity score (UT-SCC-24B [6]; [13]): 6.43 ± 1 DSS
- drug sensitivity score (UT-SCC-24B [6]; [14]): 6.03 ± 2.4 DSS
- drug sensitivity score (UT-SCC-24B [6]; [15]): 5.6 ± 0.53 DSS
- drug sensitivity score (UT-SCC-24B [6]; [16]): 2.7 ± 0.61 DSS
- drug sensitivity score (UT-SCC-24B [6]; [17]): 9.3 ± 1.2 DSS
- maximal % inhibition of viability (UT-SCC-24A; [13]): 79.6 ± 1.9%
- maximal % inhibition of viability (UT-SCC-24A; [14]): 37 ± 7.2%
- maximal % inhibition of viability (UT-SCC-24A; [15]): 72.5 ± 1.2%
- maximal % inhibition of viability (UT-SCC-24A; [16]): 35.6 ± 4.6%
- maximal % inhibition of viability (UT-SCC-24A; [17]): 68.3 ± 1.5%
